Experimental data as given in ChEMBL document CHEMBL3124815, “Discovery of a selective kinase inhibitor (TAK-632) targeting pan-RAF inhibition: design, synthesis, and biological evaluation of C-7-substituted 1,3-benzothiazole derivatives” (J Med Chem, 2013).

Key:
Homo sapiens = species: Homo sapiens; test: Selectivity factor, ratio of IC50 for VEGFR2 (unknown origin) to IC50 for N-terminal FLAG-tagged recombinant BRAF-V600E (unknown origin) expressed in baculovirus system
[1] = target: T1, Vascular endothelial growth factor receptor 2 (Homo sapiens, UniProt P35968); test: Inhibition of VEGFR2 (unknown origin) using biotinylated poly-GluTyr (4:1) as substrate pretreated for 5 mins before substrate addition measured after overnight incubation
T1 sequence (P35968 whole entry): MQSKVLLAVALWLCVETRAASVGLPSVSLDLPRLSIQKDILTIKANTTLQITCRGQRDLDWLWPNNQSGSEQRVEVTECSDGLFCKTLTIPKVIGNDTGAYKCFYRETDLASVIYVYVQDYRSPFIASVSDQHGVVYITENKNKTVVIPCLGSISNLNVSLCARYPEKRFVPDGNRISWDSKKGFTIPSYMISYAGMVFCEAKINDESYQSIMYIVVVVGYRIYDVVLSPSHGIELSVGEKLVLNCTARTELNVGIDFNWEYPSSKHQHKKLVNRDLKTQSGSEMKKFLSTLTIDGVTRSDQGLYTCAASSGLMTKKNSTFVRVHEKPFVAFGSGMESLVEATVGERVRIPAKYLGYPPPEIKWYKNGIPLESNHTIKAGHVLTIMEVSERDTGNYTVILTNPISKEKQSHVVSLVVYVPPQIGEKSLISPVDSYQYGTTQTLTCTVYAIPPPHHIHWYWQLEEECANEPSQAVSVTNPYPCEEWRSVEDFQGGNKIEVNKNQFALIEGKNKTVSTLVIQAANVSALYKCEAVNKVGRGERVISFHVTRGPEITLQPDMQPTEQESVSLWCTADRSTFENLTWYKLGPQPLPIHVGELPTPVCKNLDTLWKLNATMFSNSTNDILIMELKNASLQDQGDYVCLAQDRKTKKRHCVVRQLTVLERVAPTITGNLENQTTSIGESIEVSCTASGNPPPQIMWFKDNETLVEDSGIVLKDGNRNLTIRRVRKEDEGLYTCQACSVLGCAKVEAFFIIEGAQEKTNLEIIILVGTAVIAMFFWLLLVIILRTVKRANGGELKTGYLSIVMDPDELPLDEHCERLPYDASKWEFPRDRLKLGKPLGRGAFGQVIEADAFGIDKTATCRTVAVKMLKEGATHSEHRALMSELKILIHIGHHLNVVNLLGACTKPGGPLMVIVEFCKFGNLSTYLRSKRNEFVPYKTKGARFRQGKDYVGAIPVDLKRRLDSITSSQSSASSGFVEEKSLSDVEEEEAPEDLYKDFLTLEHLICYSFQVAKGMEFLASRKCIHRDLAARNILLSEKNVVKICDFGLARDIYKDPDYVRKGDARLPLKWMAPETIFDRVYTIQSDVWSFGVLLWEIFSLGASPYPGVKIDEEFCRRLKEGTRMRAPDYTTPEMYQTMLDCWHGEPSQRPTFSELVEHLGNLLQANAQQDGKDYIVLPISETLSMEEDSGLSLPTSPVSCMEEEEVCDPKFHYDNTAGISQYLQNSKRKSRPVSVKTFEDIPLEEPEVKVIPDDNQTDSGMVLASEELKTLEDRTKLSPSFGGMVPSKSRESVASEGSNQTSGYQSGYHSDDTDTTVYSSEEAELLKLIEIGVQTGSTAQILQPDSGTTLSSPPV

[2] = target: T2, Serine/threonine-protein kinase B-raf (Homo sapiens, UniProt P15056, V600E); test: Inhibition of N-terminal FLAG-tagged recombinant BRAF V600E mutant (unknown origin) expressed in baculovirus system preincubated for 10 mins before substrate addition measured after 20 mins by scintillation counting
T2 sequence (P15056 2-766 V600E limits assumed): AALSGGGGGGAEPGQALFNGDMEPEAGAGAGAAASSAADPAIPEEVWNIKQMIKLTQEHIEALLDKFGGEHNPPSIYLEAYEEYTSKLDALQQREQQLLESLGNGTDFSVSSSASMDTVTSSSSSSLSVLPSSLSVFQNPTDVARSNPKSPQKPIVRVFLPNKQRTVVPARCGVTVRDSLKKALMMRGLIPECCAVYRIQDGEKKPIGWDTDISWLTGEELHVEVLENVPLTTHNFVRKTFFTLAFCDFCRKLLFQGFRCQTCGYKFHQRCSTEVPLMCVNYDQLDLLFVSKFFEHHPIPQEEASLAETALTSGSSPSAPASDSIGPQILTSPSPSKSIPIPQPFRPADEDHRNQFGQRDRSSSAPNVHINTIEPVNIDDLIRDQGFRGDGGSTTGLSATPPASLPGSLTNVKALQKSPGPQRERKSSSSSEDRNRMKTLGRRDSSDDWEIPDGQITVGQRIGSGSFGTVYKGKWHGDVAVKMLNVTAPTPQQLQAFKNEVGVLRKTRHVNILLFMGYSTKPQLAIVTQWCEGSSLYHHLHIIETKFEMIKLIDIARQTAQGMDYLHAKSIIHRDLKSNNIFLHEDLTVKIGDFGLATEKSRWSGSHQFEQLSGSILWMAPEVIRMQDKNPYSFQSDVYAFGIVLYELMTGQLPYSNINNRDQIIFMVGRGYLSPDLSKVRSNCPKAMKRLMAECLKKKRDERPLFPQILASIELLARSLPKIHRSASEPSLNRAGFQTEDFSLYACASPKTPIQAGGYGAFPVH

Mus musculus = test: AUC (0 to 8 hrs) in mouse at 10 mg/kg, po; format: ADME, organism-based, Blood; parameters: time < 8 hr, dose 10 mg/kg, route oral; conditions: in vivo
[3] = target: T2, Serine/threonine-protein kinase B-raf; test: Inhibition of BRAF V600E mutant in human HT-29 cells assessed as phosphorylation of MEK; format: cell-based
[4] = target: T1, Vascular endothelial growth factor receptor 2; test: Inhibition of VEGFR2 (unknown origin)
[5] = target: T2, Serine/threonine-protein kinase B-raf; test: Inhibition of BRAF V600E mutant (unknown origin)

| IC50 [4] | IC50 [5] | Structure (SMILES) | Ratio IC50 (Homo sapiens) | IC50 [1] | IC50 [2] | AUC (Mus musculus) | IC50 [3] |
| --- | --- | --- | --- | --- | --- | --- | --- |
|  |  | CC(C)(C#N)c1cccc(C(=O)Nc2cccc(Oc3ccc4nc(NC(=O)C5CC5)sc4c3C(=O)O)c2)c1 | 0.051 | 15 nM | 290 nM |  |  |
|  |  | N#Cc1c(Oc2cccc(NC(=O)Nc3cccc(C(F)(F)F)c3)c2)ccc2nc(NC(=O)C3CC3)sc12 | 19 | 350 nM | 18 nM | 99 ng·h/mL | 75 nM |
|  |  | N#Cc1c(Oc2cccc(NC(=O)Cc3ccc(C(F)(F)F)cc3)c2)ccc2nc(NC(=O)C3CC3)sc12 | 20 |  |  | 123 ng·h/mL | 320 nM |
|  |  | N#Cc1c(Oc2cccc(NC(=O)Nc3ccccc3C(F)(F)F)c2)ccc2nc(NC(=O)C3CC3)sc12 | 6.3 |  |  | 58 ng·h/mL | > 500 nM |
|  |  | CC(C)(C#N)c1cccc(C(=O)Nc2cccc(Oc3ccc4nc(NC(=O)C5CC5)sc4c3C#N)c2)c1 | 5.8 |  |  | 149 ng·h/mL | 34 nM |
|  |  | COC(=O)c1c(Oc2cccc(NC(=O)c3cccc(C(C)(C)C#N)c3)c2)ccc2nc(NC(=O)C3CC3)sc12 | 2.8 |  |  |  | 24 nM |
|  |  | N#Cc1c(Oc2ccc(F)c(NC(=O)Nc3cccc(C(F)(F)F)c3)c2)ccc2nc(NC(=O)C3CC3)sc12 | 15 |  |  |  | 22 nM |
| 2.8 nM | 5.6 nM | N#CC1(c2cccc(C(=O)Nc3cc(Oc4ccc5nc(NC(=O)C6CC6)sc5n4)ccc3F)c2Cl)CC1 |  |  |  |  |  |
|  |  | N#Cc1c(Oc2ccc(F)c(NC(=O)Nc3ccc(C(F)(F)F)cc3)c2)ccc2nc(NC(=O)C3CC3)sc12 | 25 |  |  | 158 ng·h/mL | 81 nM |
|  |  | CC(C)(C#N)c1cccc(C(=O)Nc2cccc(Oc3ccc4nc(NC(=O)C5CC5)sc4c3)c2)c1 | 0.56 |  |  |  |  |
|  |  | N#Cc1c(Oc2cccc(NC(=O)Nc3ccc(C(F)(F)F)cc3)c2)ccc2nc(NC(=O)C3CC3)sc12 | 18 |  |  | 431 ng·h/mL | 110 nM |
|  |  | N#Cc1c(Oc2cccc(NC(=O)Cc3ccccc3C(F)(F)F)c2)ccc2nc(NC(=O)C3CC3)sc12 | 7.1 |  |  | 255 ng·h/mL | > 500 nM |
|  |  | CC(C)(C#N)c1cccc(C(=O)Nc2cccc(Oc3ccc4nc(NC(=O)C5CC5)sc4c3[N+](=O)[O-])c2)c1 | 2.8 |  |  |  | 29 nM |
|  |  | N#Cc1c(Oc2cccc(NC(=O)Cc3cccc(C(F)(F)F)c3)c2)ccc2nc(NC(=O)C3CC3)sc12 | 120 |  |  | 3780 ng·h/mL | 360 nM |
|  |  | CC(C)(C#N)c1cccc(C(=O)Nc2cccc(Oc3ccc4nc(NC(=O)C5CC5)sc4c3CO)c2)c1 | 0.31 |  |  |  | 170 nM |
